One compound from US9066922B2, “Pharmaceutical composition for the treatment or prevention of diseases involving obesity, diabetes, metabolic syndrome, neuro-degenerative diseases and mitochondria dysfunction diseases” (MD BIOALPHA CO., LTD., priority 2005, dated 2015) can be followed below.

One data set concerns AMPK. The experiment in a line: Determination of AMPK activation in C2C12 myoblast cells (SAMS peptide, [γ-32P]ATP). The class given is cell-based. Conditions: differentiated C2C12 myoblast cells, 5 μg/ml, compared with control (DMSO 0.5% = 1). On the procedure: Myoblast cells, C2C12, were cultured in DMEM containing 10% bovine calf serum. When a cell density reached a range of about 85% to 90%, the culture medium was replaced with a medium containing 1% bovine calf serum to induce differentiation of cells. The thus-differentiated myoblast cells were treated with samples synthesized in Examples 1 through 29 at a concentration of 5 μg/ml, and compared with a control group. Enzymatic activity of AMPK was determined as follows. Firstly, C2C12 cells were lysed to obtain protein extracts and then ammonium sulfate was added to a final concentration of 30%, thereby precipitating proteins. Protein precipitates were dissolved in a buffer (62.5 mM Hepes, pH 7.2, 62.5 mM NaCl, 62.5 mM NaF, 1.25 mM Na pyrophosphate, 1.25 mM EDTA, 1 mM DTT, 0.1 mM PMSF, and 200 μM AMP). Thereafter, 200 μM SAMS peptide (HMRSAMSGLHLVKRR: the underlined serine residue is a phosphorylation site, as an AMPK phosphorylation site of acetyl-CoA carboxylase) and [γ-32P]ATP were added thereto and reactants were reacted for 10 minutes at 30° C. This was followed by spotting of the resulting reaction solution on p81 phosphocellulose paper. The p81 paper was washed with a 3% phosphoric acid solution and radioactivity thereof was measured. For each reaction condition, reactions involving no SAMS peptide were also conducted and basic values were subtracted from the thus-observed values.

Data set [1] concerns C57BL/6JL Lep ob/Lep ob mice. The experiment in a line: Weight loss effects in obese mice (ob/ob): body weight. Type of data set: in vivo. Conditions: 100 mg/kg for 26 days. From the text: (§1) 10-week-old C57BL/6JL Lep ob/Lep ob male mice having obesity characteristics and predisposition were purchased from Daehan Biolink Co., Ltd. (Chungchongbuk-do, Korea). Animals were raised in a breeding room maintained at a temperature of 23 C, 55% humidity, illumination of 300 to 500 lux, a 12-h light/dark (L/D) cycle, and ventilation of 10 to 18 times/hr. Animals were fed ad libitum pellets of Purina Rodent Laboratory Chow 5001 (purchased from Purina Mills Inc., St. Louis, Mo., USA) as a solid feed for experimental animals and tap water as drinking water. Mice were allowed to acclimate to new environment of the breeding room for two weeks and were then administered some pyrano-o-naphthoquinone and furano-o-naphthoquinone derivatives synthesized according to the present invention at doses of 100 mg/kg for 26 days. Observation was made on changes in body weight, blood glucose and dietary intake, with respect to a time course of administration. After administration was complete, Computed Tomography (CT) was performed to confirm changes in adipose tissue distribution of animals, changes in fat distribution of tissues in various organs, changes in sizes of adipocytes, and changes in glucose, lipid and enzyme levels in blood and liver.

The subject of data set [2] is C57BL/6JL Lep ob/Lep ob mice. The experiment in a line: Blood lipid, glucose and enzyme levels in obese mice (ob/ob). Type of data set: in vivo. Set-up: unit not given here. Conditions: 100 mg/kg for 26 days.
Source text: as §1

The test system of data set [3] is Sprague-Dawley rats. The experiment in a line: Acute toxicity test, oral administration. Type of data set: in vivo. Conditions: oral, 50, 100 and 200 mg/kg, observed for 2 weeks, vs control group.
Data set [4] relates to Sprague-Dawley rats. The experiment in a line: Acute toxicity test, peritoneal administration. Conditions: peritoneal, 50, 100 and 200 mg/kg, observed for 2 weeks, vs control group. Type of data set: in vivo.

`CC1OC2=C(C(=O)C(=O)c3ccccc32)C1(C)C` (stereo not shown) [Compound 2, Dunnione] gave an AMPK fold in the data set on AMPK of 1.4 fold. The “Final BW” value in data set [1] is reported as 28.7 g. Moreover, in data set [1] (Mus musculus, 624 h, read-out: Increase in BW), the change in vivo at 100 mg/kg was -46.2%. Besides, in data set [2], the Cholesterol turned out to be 123, the GOT is on record as 50, the GPT was found to be 43 and the Glucose is 125. Besides, in data set [2], the Triglyceride stood at 154. In the data set with Sprague-Dawley rats [3], the visually observable symptoms entry is “no visually observable symptoms with exception of weight loss”. The visually observable symptoms result in the data set on Sprague-Dawley rats [4] is on record as “no visually observable symptoms with exception of weight loss”.
